Test results: patent US9981962B2, “Pyrazole derivatives as NIK inhibitors” (Janssen Pharmaceutica NV, priority 2014, dated 2018)

What was measured:
LP-1 cells = assay: Biological Assay C: antiproliferative activity on LP-1 cells (CellTiter-Glo); format: cell-based, human; details: Homo sapiens, LP-1, 72 h, 72 hr treatment, averaged values
Procedure: (§1) Determination of Antiproliferative Activity on LP-1, L-363 and JJN-3 Cells
(§2) All compounds tested were dissolved in DMSO and further dilutions were made in culture medium. Final DMSO concentration was 0.3% (v/v) in cell proliferation assays. Viability was assessed using CellTiter-Glo cell viability assay kit (Promega). The human LP-1, L-363 and JJN-3 cells (DSMZ) were cultured in RPMI 1640 medium supplemented with 2 mM L-glutamine, and 10% fetal calf serum (PAA). Cells were routinely kept as suspension cells at 37° C. in a humidified 5% CO2 atmosphere. Cells were passaged at a seeding density of 0.2×10^6/ml twice a week. Cells were seeded in black tissue culture treated 96-well plates (Perkin Elmer). Densities used for plating ranged from 2,000 to 6,000 cells per well in a total volume of 75 μl medium. After twenty four hours, drugs and/or solvents were added (25 μl) to a final volume of 100 μl. Following 72 hr of treatment plates were removed from the incubator and allowed to equilibrate to room temperature for approx 10 min. 100 ut CellTiter-Glo reagent was added to each well that was then covered (Perkin Elmer Topseal) and shaken on plate shaker for 10 min. Luminescence was measured on a HTS Topcount (Perkin Elmer). Within an experiment, the results for each treatment were the mean of 2 replicate wells. For initial screening purposes, compounds were tested using a 9 point dilution curve (serial 1:3 dilutions). For each experiment, controls (containing no drug) and a blank incubation (containing cells read at the time of compound addition) were run in parallel. The blank value was subtracted from all control and sample values. For each sample, the mean value for cell growth (in relative light units) was expressed as a percentage of the mean value for cell growth of the control.

[1] = system: P-IKKα levels in L363 cells; assay: Biological Assay B: effect of compounds on P-IKKα levels in L363 cells; format: cell-based; details: Homo sapiens, L-363, BAFF stimulated, 2 hr treatment, averaged values, read-out: IKKα Cellular IC50
Procedure: Effect of Compounds on P-IKKα Levels in L363 Cells
All compounds tested were dissolved in DMSO and further dilutions were made in culture medium. Final DMSO concentration was 1% (v/v) in cell assays. The human L363 cells (ATCC) were cultured in RPMI 1640 medium supplemented with GlutaMax and 10% fetal calf serum (PAA). Cells were routinely maintained at densities of 0.2×10^6 cells per ml—1×10^6 cells per ml at 37° C. in a humidified 5% CO2 atmosphere. Cells were passaged twice a week splitting back to obtain the low density. Cells were seeded in 96 well plates (Nunc 167008) at 2×10^6 per ml media in a volume of 75 μl per well plus 25 μl 1 μg/ml recombinant human B-cell activating factor (BAFF/BLyS/TNFSF13B). Seeded cells were incubated at 37° C. in a humidified 5% CO2 atmosphere for 24 hr. Drugs and/or solvents were added (20 μl) to a final volume of 120 μl. Following 2 hr treatment plates were removed from the incubator and cell lysis was achieved by the addition of 30 μl 5× lysis buffer followed by shaking on a plate shaker at 4° C. for 10 min. At the end of this incubation lysed cells were centrifuged at 800×g for 20 min at 4° C. and the lysate was assessed for P-IKKα levels by sandwich immuno-assay carried out in anti-rabbit antibody coated Mesoscale plates. Within an experiment, the results for each treatment were the mean of 2 replicate wells. For initial screening purposes, compounds were tested using an 8 point dilution curve (serial 1:3 dilutions). For each experiment, controls (containing MG132 and BAFF but no test drug) and a blank incubation (containing MG132 and BAFF and 10 μM ADS125117, a test concentration known to give full inhibition) were run in parallel. The blank incubation value was subtracted from all control and sample values. To determine the IC50 a sigmoidal curve was fitted to the plot of % inhibition of control P-IKKα levels versus Log10 compound concentration.

[2] = molecular target: T1, Recombinant Human NF-kappaB-Inducing Kinase (NIK/MAP3K14) (Homo sapiens, UniProt Q99558); assay: Biological Assay A: inhibition of recombinant human NIK/MAP3K14 activity (MSD, MBP substrate); details: 10 nM NIK, 25 μM ATP, 1 h at 25° C.; averaged over all measurements on all batches; read-out: Biochemical (MSD IC50)
Procedure: Inhibition of Recombinant Human NF-kappaB-Inducing Kinase (NIK/MAP3K14) Activity Assay buffer was 50 mM Tris pH 7.5 containing 1 mM EGTA (ethylene glycol tetraacetic acid), 1 mM DTT (dithiothreitol), 0.1 mM Na3VO4, 5 mM MgCl2, 0.01% Tween® 20. Assays were carried out in 384 well Mesoscale high binding plates which had been coated with myelin basic protein (MBP) and blocked with bovine serum albumin to prevent non-specific protein binding. All compounds tested were dissolved in dimethyl sulfoxide (DMSO) and further dilutions were made in assay buffer. Final DMSO concentration was 1% (v/v) in assays. Incubations consisted of compound (1% DMSO in control and blank wells), 25 μM Adenosine-5′-triphosphate (ATP), and 10 nM NIK/MAP3K14 substituting enzyme with buffer in the blank wells. Incubations were carried out for 1 h at 25° C. and were followed by washing and sequential incubation with rabbit anti-phospho-MBP and anti-rabbit Ig Sulfotag antibody before reading bound Sulfotag on a Mesoscale Discovery. Signal obtained in the wells containing blank samples was subtracted from all other wells and ICso's were determined by fitting a sigmoidal curve to % inhibition of control versus Log10 compound concentration.

JJN-3 cells = assay: Biological Assay C: antiproliferative activity on JJN-3 cells (CellTiter-Glo); format: cell-based, human; details: Homo sapiens, JJN-3, 72 h, 72 hr treatment, averaged values
Procedure: as §1, §2

[3] = molecular target: T1, Recombinant Human NF-kappaB-Inducing Kinase (NIK/MAP3K14); assay: Biological Assay A2: inhibition of auto-phosphorylation of recombinant human NIK/MAP3K14 (AlphaScreen); format: biochemical; details: 0.2 nM GST-tagged NIK, 25 microM ATP, 1 h at 25° C., averaged values
Procedure: Inhibition of Auto-Phosphorylation of Recombinant Human NF-kappaB-Inducing Kinase (NIK/MAP3K14) Activity (AlphaScreen®)
NIK/MAP3K14 auto-phosphorylation activity was measured using the AlphaScreen® (αscreen) format (Perkin Elmer). All compounds tested were dissolved in dimethyl sulfoxide (DMSO) and further dilutions were made in assay buffer. Final DMSO concentration was 1% (v/v) in assays. Assay buffer was 50 mM Tris pH 7.5 containing 1 mM EGTA (ethylene glycol tetraacetic acid), 1 mM DTT (dithiothreitol), 0.1 mM Na3VO4, 5 mM MgCl2, 0.01% Tween® 20. Assays were carried out in 384 well Alphaplates (Perkin Elmer). Incubations consisted of compound, 25 microM Adenosine-5′-triphosphate (ATP), and 0.2 nM NIK/MAP3K14. Incubations were initiated by addition of GST-tagged NIK/MAP3K14 enzyme, carried out for 1 h at 25° C. and terminated by addition of stop buffer containing anti-phospho-IKK Ser176/180 antibody. Protein A Acceptor and Glutathione-Donor beads were added before reading using an EnVision® Multilabel Plate Reader (Perkin Elmer). Signal obtained in the wells containing blank samples was subtracted from all other wells and IC50's were determined by fitting a sigmoidal curve to % inhibition of control versus Log10 compound concentration.

L-363 cells = assay: Biological Assay C: antiproliferative activity on L-363 cells (CellTiter-Glo); format: cell-based, human; details: Homo sapiens, L-363, 72 h, 72 hr treatment, averaged values
Procedure: as §1, §2

T1 sequence (Q99558 whole entry): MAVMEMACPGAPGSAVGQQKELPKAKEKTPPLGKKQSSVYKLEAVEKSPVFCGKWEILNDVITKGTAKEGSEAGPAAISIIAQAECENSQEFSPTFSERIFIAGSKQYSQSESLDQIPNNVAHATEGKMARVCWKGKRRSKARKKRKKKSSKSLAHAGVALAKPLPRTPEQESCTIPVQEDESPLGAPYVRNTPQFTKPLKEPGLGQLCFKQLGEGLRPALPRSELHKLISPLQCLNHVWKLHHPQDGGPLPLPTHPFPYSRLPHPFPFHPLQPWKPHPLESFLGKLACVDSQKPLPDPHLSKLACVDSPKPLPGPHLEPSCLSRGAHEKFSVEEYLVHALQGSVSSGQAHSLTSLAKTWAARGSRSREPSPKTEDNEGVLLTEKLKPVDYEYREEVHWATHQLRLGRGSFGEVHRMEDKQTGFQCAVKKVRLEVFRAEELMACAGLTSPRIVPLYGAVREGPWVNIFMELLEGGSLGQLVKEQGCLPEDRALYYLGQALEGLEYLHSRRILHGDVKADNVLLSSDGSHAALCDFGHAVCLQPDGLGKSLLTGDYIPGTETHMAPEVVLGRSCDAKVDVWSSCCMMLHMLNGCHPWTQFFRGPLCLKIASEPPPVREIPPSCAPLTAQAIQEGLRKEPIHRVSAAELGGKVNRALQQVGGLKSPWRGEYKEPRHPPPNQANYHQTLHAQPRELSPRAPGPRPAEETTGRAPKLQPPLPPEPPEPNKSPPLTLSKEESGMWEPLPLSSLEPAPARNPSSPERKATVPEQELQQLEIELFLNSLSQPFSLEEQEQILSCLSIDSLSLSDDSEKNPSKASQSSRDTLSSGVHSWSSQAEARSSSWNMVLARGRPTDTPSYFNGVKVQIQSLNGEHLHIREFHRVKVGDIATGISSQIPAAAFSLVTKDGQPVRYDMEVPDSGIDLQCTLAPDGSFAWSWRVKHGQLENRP

IC50 [1] [nM]	IC50 [2] [nM]	IC50 [3] [nM]	SMILES	EC50 (LP-1 cells) [nM]	EC50 (JJN-3 cells) [nM]	EC50 (L-363 cells) [nM]
139	71	35	CCn1cc(-c2c[nH]nc2C)c2cc(C#CC(C)(C)O)ccc21 [Compound 3]	3160	1860	3120
145	38	25	CC(C)(O)C#Cc1ccc2c(c1)c(-c1cn[nH]c1)cn2CC1CCOC1 (stereo not drawn) [Compound 5]	1890	1410	1830
73	6	66	CC(C)(O)C#Cc1ccc2c(c1)c(-c1cn[nH]c1)cn2CC1COC1 [Compound 6]	1950	1080	704
175	11	73	COCCn1cc(-c2cn[nH]c2)c2cc(C#CC(C)(C)O)ccc21 [Compound 7]	2180	1410	1180
18	13	14	CC(C)n1cc(-c2cn[nH]c2)c2cc(C#CC(C)(C)O)ccc21 [Compound 8]	219	218	221
54	8	43	CCn1cc(-c2cn[nH]c2)c2cc(C#CC(C)(C)O)ccc21 [Compound 9]	298	418	332
111	38	110	CC(C)(O)C#Cc1ccc2c(c1)c(-c1cn[nH]c1)cn2CC(C)(C)O [Compound 10]	947	723	759
83	16	65	CC(C)(O)C#Cc1ccc2c(c1)c(-c1cn[nH]c1)cn2CCO [Compound 11]	483	394	340
38	41	65	Cn1cc(-c2cn[nH]c2)c2cc(C#CC(C)(C)O)ccc21 [Compound 12]	769	754	700
16	9	7	CC(O)(C#Cc1ccc2[nH]cc(-c3cn[nH]c3)c2c1)c1nccs1 (stereo not drawn) [Compound 13]	9910	704	5520
300	30	28	OC1(C#Cc2ccc3[nH]cc(-c4cn[nH]c4)c3c2)CCCC1 [Compound 14]	5440	2200	4050
